From publication PMC7462607 (eLife, 2020)
Like-named read-outs stand apart in the source and are kept apart here.

Tests used:
CCNK = assay: Western blotting of CCNK protein level in A549 cells; format: cell-based, Homo sapiens; details: for effect on HQ461-dependent CCNK degradation: A549 treated with HQ461 plus inhibitor; for CCNK degradation by compound alone: A549; for effect on HQ461-induced CCNK degradation: A549 treated with inhibitor prior to HQ461 treatment
Procedure: Standard SDS-PAGE and western blotting procedures were used with the following modifications. For preparation of total lysates, cells were rinsed with DPBS to remove residual medium and then lysed in 20 mM HEPES-NaOH, pH 8.0, 10 mM NaCl, 2 mM MgCl2, 1% SDS freshly supplemented with 0.5 units/µL of benzonase and 1x cOmplete, Mini, EDTA-free protease inhibitor cocktail (Roche, Bazel, Switzerland). Protein concentrations of the resulting lysates were quantified by the BCA method. Between 30 to 60 µg of proteins were resolved on SDS-PAGE and transferred to nitrocellulose membranes with a pore size of 0.5 μm. Membranes were blocked in 5% nonfat milk PBST (0.1% v/v Tween-20) for 30 min before blotting with antibodies. The following primary antibodies were used by dilution in 5% nonfat milk PBST: anti-NRF2 (Abcam, Cambridge, UK, ab62352, 1:4,000), anti-β-Actin-HRP (Huaxingbio, Beijing, China, HX18271,1:10,000), anti-α-Tubulin-HRFP (MBL Life Science, Japan, PM054-7, 1:10,000), anti-DDB1 (Abcam, Cambridge, UK, ab109027, 1:10,000), anti-RBX1 (Proteintech, Wuhan, China, 14895–1-AP, 1:5,000), anti-UBE2G1 (Proteintech, Wuhuan, China, 12012–1-AP, 1:2,000), anti-CDK12 (Cell Signaling Technology, Danvers, USA, 11973S,1:4,000), anti-CCNK (Bethyl lab, Montgomery, USA, A301-939A-T,1:4,000), anti-FLAG-HRP (Sigma-Aldrich, MO, USA, A8592, 1:10,000), anti-HA (BioLegend, San Diego, USA, 901533, 1:4,000), anti-RNA polymerase II subunit B1 (phospho CTD Ser-2) clone 3E10 (Sigma-Aldrich, MO, USA, 04–1571, 1:5,000), and anti-RNA polymerase II CTD repeat YSPTSPS antibody clone 8WG16 (Abcam, Cambridge, UK, ab817, 1:5,000). The following HRP-linked secondary antibodies were used by dilution in PBST: anti-rabbit IgG (Cell Signaling Technology, Danvers, USA, 7074S, 1:10,000), anti-mouse IgG (Zsbio, Beijing, China, ZB-2305, 1:10,000), and anti-rat IgG, (Sino Biological, Beijing, China, SSA005, 1:10,000). M5 HiPer ECL Western HRP Substrate (Mei5bio, Beijing, China, MF074-01) was used for the detection of HRP enzymatic activity. Western blot images were taken with a VILBER FUSION FX7 imager.

CCNK-luc reporter = assay: CCNK-luc degradation assay; format: cell-based, Homo sapiens
Procedure: The ORF for CCNK was fused with the firefly luciferase (luc) sequence and inserted into the pCDNA3.1 vector. For setting up cells for co-transfection, 0.6 million 293 T cells were seeded per well in 6-well plates and allowed to attach to plates overnight. These cells were then transfected with 50 ng of pCDNA3.1-3xFLAG-CDK12 kinase domain, 50 ng of pCDNA3.1-CCNK-luc, and 400 ng of the empty pCDNA3.1 vector. Twenty-four hours later, transfected cells were dissociated by trypsin digestion and then plated in 96-well white plates. After overnight attachments, cells were then treated with HQ461 and its analog derivatives for 8 hr followed by measurements of luciferase activity with Bright-Glo luciferase assay system (Promega, Madison, USA). Half maximal CCNK-degradation concentrations (DC50) of HQ461 and its active analogs were interpolated by curve fitting with GraphPad Prism using baseline correction (by normalizing to DMSO control), the asymmetric (five parameter) equation, and least squares fit.

[1] = molecular target: T1, FLAG-Avi-DDB1 and His-CDK12KD/His-CCNKΔC (WT) (Homo sapiens, UniProt Q9NYV4); assay: AlphaScreen assay, WT; format: binding; details: preincubated with 5 µM THZ531
T1 construct: Human CDK12KD (residues 715–1052); made in house; host or cells: Sf9 or High Five (CDK12KD/CCNKΔC, co-infected with yeast CAK1); 293F with BirA (FLAG-Avi-DDB1)
T1 sequence (Q9NYV4 715-1052 limits assumed, stated change not applied): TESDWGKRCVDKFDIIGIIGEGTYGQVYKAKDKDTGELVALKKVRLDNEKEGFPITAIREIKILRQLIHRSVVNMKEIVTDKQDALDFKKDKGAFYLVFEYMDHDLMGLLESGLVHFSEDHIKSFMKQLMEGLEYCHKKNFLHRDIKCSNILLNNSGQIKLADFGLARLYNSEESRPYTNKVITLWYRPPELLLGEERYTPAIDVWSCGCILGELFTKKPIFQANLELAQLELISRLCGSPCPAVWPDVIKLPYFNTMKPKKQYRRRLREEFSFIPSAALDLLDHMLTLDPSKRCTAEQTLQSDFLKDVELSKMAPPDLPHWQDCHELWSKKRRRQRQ
T1 sequence (O75909 11-267 partner limits assumed): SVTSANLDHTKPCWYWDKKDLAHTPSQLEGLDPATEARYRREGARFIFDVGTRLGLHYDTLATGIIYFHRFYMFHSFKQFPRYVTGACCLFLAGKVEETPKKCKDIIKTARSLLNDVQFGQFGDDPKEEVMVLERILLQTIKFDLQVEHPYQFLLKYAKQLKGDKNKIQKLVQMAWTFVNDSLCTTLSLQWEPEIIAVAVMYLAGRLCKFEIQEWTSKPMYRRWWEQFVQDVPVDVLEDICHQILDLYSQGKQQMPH
T1 sequence (Q16531 whole entry partner, the tested form may be a part): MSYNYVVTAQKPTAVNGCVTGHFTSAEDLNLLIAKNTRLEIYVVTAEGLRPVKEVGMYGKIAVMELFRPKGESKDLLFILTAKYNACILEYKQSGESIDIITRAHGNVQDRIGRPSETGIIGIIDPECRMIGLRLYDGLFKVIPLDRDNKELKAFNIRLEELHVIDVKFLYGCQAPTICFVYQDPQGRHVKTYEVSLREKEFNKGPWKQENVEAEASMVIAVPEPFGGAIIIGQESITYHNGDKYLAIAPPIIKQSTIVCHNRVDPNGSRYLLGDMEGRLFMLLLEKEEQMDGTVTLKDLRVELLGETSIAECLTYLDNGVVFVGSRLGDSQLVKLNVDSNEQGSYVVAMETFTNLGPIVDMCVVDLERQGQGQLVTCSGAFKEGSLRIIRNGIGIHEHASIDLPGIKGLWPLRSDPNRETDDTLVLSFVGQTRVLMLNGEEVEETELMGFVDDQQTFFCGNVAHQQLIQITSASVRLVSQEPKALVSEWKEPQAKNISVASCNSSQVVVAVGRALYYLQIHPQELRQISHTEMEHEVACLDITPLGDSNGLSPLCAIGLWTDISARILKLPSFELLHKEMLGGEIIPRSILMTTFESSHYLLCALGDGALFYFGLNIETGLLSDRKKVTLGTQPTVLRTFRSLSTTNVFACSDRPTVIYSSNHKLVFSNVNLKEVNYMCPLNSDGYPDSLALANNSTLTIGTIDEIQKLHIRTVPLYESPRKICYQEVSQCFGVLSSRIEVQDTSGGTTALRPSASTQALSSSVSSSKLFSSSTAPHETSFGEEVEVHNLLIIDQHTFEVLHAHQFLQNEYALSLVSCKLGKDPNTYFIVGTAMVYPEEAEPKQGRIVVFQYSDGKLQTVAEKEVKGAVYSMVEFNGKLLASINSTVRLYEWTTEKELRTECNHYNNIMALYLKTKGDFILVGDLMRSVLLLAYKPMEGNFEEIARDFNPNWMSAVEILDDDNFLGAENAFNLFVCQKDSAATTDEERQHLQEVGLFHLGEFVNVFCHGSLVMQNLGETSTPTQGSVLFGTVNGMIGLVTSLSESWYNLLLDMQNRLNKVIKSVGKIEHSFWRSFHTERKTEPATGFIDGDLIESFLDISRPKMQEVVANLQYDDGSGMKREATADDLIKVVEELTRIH
Procedure: Biotinylated FLAG-Avi-DDB1 (3 µM) and 6xHis-CDK12KD/6xHis-CCNKΔC (WT or G731E/R mutants) (3 µM) were mixed in an assay buffer (50 mM HEPES, pH7.5, 300 mM NaCl, 0.5 mM TCEP, 0.1% NP-40, 0.1% BSA) and a serial dilution of HQ461.The protein-compound mix was transferred to 384-well plates (Corning, Corning, USA); 15 μL per well. After a 1 hr room temperature incubation, 10 µL of nickel chelate (Ni-NTA) acceptor beads (PerkinElmer, Waltham, USA, Waltham, USA, 6760619C) (1:100 diluted with assay buffer) was added per well. After incubation in the dark for 1 hr at room temperature, 10 μL of streptavidin donor beads (PerkinElmer, Waltham, USA, 6760619C) (1:100 diluted in assay buffer) was added per well. After another 1 hr incubation, AlphaScreen signal was measured on the EnVision multimode plate reader (PerkinElmer, Waltham, USA). For THZ531 competition, FLAG-Avi-DDB1, 6xHis-CDK12KD/6xHis-CCNKΔC mix was preincubated with 5 μM of THZ531 for 30 min on ice followed by the procedures described above.

[2] = molecular target: T2, DDB1ΔBPB (DDB1 without its BPB domain) (human, UniProt Q16531-1 1-1140, removing residues 400–704); assay: differential scanning fluorimetry; 5 µM DDB1ΔBPB with 10 µM HBx peptide; SYPRO Orange; 50 mM HEPES pH 7.5, 300 mM NaCl, 0.5 mM TCEP; 10°C to 95°C; details: both partners purified
T2 construct: also called Strep-8×His-DDB1ΔBPB
T2 sequence (Q16531 other isoform, or with tags, fused parts or gaps with the stated changes): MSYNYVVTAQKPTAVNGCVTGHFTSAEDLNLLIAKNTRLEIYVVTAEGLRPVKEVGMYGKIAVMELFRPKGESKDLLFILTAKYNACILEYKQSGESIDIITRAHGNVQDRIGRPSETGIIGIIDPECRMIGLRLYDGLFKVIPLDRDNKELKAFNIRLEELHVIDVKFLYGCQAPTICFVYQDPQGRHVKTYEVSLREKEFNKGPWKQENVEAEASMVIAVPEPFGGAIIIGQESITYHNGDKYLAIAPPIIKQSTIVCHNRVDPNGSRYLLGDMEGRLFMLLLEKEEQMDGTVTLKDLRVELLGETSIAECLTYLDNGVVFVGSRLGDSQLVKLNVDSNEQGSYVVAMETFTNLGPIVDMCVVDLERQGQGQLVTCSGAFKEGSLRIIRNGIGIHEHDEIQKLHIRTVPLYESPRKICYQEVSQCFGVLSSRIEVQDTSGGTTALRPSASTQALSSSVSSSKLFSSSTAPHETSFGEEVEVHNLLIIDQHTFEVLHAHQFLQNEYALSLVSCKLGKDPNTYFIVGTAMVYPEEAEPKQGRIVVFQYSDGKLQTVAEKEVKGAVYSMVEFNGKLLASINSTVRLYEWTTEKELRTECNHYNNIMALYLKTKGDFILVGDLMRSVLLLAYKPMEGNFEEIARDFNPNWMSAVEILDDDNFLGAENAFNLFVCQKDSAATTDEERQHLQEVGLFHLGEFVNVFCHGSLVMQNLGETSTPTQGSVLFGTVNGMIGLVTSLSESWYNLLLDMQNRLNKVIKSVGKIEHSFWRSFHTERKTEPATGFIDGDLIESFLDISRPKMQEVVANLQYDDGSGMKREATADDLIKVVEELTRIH

[3] = 293T, 8 hr, read-out: DC50 (half maximal CCNK-degradation concentration)

Molecule | Dmax (10 μM), percentage of CCNK degradation relative to DMSO control (CCNK-luc reporter; 8 hr) [%] | DC50 (CCNK-luc reporter; [3]) [µM] | further results
CC(C)C[C@H](NC(=O)[C@H](Cc1ccccc1)NC(=O)c1cnccn1)B(O)O [bortezomib] |  |  | effect on HQ461-dependent CCNK degradation (CCNK): abrogated HQ461-dependent CCNK degradation
NC(=O)CNC(=O)Cc1csc(Nc2ccccn2)n1 [HQ022] | 25.7 |  | 
CCc1cccc(Nc2nc(CC(=O)Nc3ncc(C)s3)cs2)n1 [HQ004, 2-(2-((6-ethylpyridin-2-yl)amino)thiazol-4-yl)-N-(5-methylthiazol-2-yl)acetamide] |  | 0.542 | 
Cc1cnc(NC(=O)Cc2csc(Nc3cccc(F)n3)n2)s1 [HQ001, 2-(2-((6-fluoropyridin-2-yl)amino)thiazol-4-yl)-N-(5-methylthiazol-2-yl)acetamide] |  | 0.3 | 
Cc1cnc(NC(=O)Cc2csc(Nc3cccc(C(F)(F)F)n3)n2)s1 [HQ009, N-(5-methylthiazol-2-yl)−2-(2-((6-(trifluoromethyl)pyridin-2-yl)amino)thiazol-4-yl)acetamide] |  | 2.36 | 
Cc1cnc(NC(=O)Cc2csc(Nc3ccccn3)n2)s1 [HQ010, N-(5-methylthiazol-2-yl)−2-(2-(pyridin-2-ylamino)thiazol-4-yl)acetamide] |  | 0.811 | fold increase in DC50 relative to HQ461 (CCNK-luc reporter): 6 fold
Cc1cnc(NC(=O)Cc2csc(Nc3cccc(N)n3)n2)s1 [HQ007, 2-(2-((6-aminopyridin-2-yl)amino)thiazol-4-yl)-N-(5-methylthiazol-2-yl)acetamide] |  | 0.561 | 
Cc1cnc(NC(=O)Cc2csc(N)n2)s1 [HQ011, 2-(2-aminothiazol-4-yl)-N-(5-methylthiazol-2-yl)acetamide] |  |  | CCNK degradation activity relative to HQ461 (CCNK-luc reporter): losses in activity
Nc1nc(CC(=O)Nc2nc(-c3ccco3)cs2)cs1 [HQ013, 2-(2-aminothiazol-4-yl)-N-(4-(furan-2-yl)thiazol-2-yl)acetamide] | 8.6 |  | 
CCc1ccccc1NC(=O)Cc1csc(Nc2ccccn2)n1 [HQ023] | 3.0 |  | 
Cc1cnc(NC(=O)Cc2csc(Nc3cccc(Br)n3)n2)s1 [HQ003, 2-(2-((6-bromopyridin-2-yl)amino)thiazol-4-yl)-N-(5-methylthiazol-2-yl)acetamide] |  | 0.407 | 
NS(=O)(=O)OC[C@@H]1C[C@@H](n2ccc3c(N[C@H]4CCc5ccccc54)ncnc32)C[C@@H]1O [MLN4924] |  |  | effect on HQ461-dependent CCNK degradation (CCNK): abrogated HQ461-dependent CCNK degradation
Cc1ccnc(Nc2nc(CC(=O)Nc3nc4c(s3)CCCC4)cs2)c1 [HQ018] | 18.8 |  | 
O=C(Cc1csc(Nc2ccccn2)n1)NCc1nc2ccccc2[nH]1 [HQ020] | 15.5 |  | 
CC(=O)Nc1nc(CC(=O)Nc2ncc(C)s2)cs1 [HQ019] | 62.0 |  | CCNK degradation activity relative to HQ461 (CCNK-luc reporter): losses in activity
Cc1cnc(NC(=O)Cc2csc(Nc3cccc(CO)n3)n2)s1 [HQ005, 2-(2-((6-(hydroxymethyl)pyridin-2-yl)amino)thiazol-4-yl)-N-(5-methylthiazol-2-yl)acetamide] | 86.5 |  | fold increase in potency relative to HQ461 (CCNK-luc reporter): 3 fold; DC50 (CCNK-luc reporter; read-out: DC50): 0.041 µM
CCc1cnn2c(NCc3ccc[n+]([O-])c3)cc(N3CCCC[C@H]3CCO)nc12 [dinaciclib] |  |  | CCNK degradation by compound alone (CCNK): Neither THZ531 nor dinaciclib treatment caused CCNK degradation; effect on HQ461-induced CCNK degradation (CCNK): prevented CCNK degradation
Cc1cccc(Nc2nc(CC(N)=O)cs2)n1 [HQ017] | 4.2 |  | 
CN(C)C/C=C/C(=O)Nc1ccc(C(=O)N2CCC[C@@H](Nc3ncc(Cl)c(-c4c[nH]c5ccccc45)n3)C2)cc1 [THZ531] |  |  | CCNK degradation by compound alone (CCNK): Neither THZ531 nor dinaciclib treatment caused CCNK degradation; effect on HQ461-induced CCNK degradation (CCNK): prevented CCNK degradation; effect on HQ461-dependent formation of the CDK12KD/CCNKΔC/DDB1 complex [1]: inhibited HQ461-dependent formation of the CDK12KD/CCNKΔC/DDB1 complex
Cc1cnc(NC(=O)Cc2csc(NC(=O)c3cccc(Br)n3)n2)s1 [HQ014, 6-bromo-N-(4-(2-((5-methylthiazol-2-yl)amino)−2-oxoethyl)thiazol-2-yl) Picolinamide] | 9.9 |  | CCNK degradation activity relative to HQ461 (CCNK-luc reporter): losses in activity
Cc1cnc(NC(=O)Cc2csc(Nc3cccc(-n4cccn4)n3)n2)s1 [HQ008, 2-(2-((6-(1H-pyrazol-1-yl)pyridin-2-yl)amino)thiazol-4-yl)-N-(5-methylthiazol-2-yl)acetamide] |  | 5.03 | fold increase in DC50 relative to HQ461 (CCNK-luc reporter): 38 fold
Cc1cccc(Nc2nc(CC(=O)NC(C)c3ccccc3)cs2)n1 (centres unmarked) [HQ015] | 8.6 |  | 
NC(=O)c1ccccc1NC(=O)Cc1csc(Nc2ccccn2)n1 [HQ021] | 7.8 |  | 
COc1cccc(Nc2nc(CC(=O)Nc3ncc(C)s3)cs2)n1 [HQ006, 2-(2-((6-methoxypyridin-2-yl)amino)thiazol-4-yl)-N-(5-methylthiazol-2-yl)acetamide] |  | 0.466 | 
Cc1cnc(NC(=O)Cc2csc(Nc3cccc(Cl)n3)n2)s1 [HQ002, 2-(2-((6-chloropyridin-2-yl)amino)thiazol-4-yl)-N-(5-methylthiazol-2-yl)acetamide] |  | 0.471 | 
ILPKVLHKRTLGLS (peptide corresponding to the α-helical motif of hepatitis B virus X protein (HBx); also called HBx peptides; source: synthetic peptide (ChinaPetides, purity 96%)) [HBx peptide (α-helical motif of the hepatitis B virus X protein)] |  |  | increase in Tm [2]: 2 °C
